What was measured:
[1] = test system: HDAC4, BDNF and GluN2B expression in primary cultured cortical neurons; experiment: Expression of HDAC4, BDNF and GluN2B in primary cultured cortical neurons; format: cell-based, mouse
Description: Meanwhile, primary cortical neuron cells were isolated from cerebral cortices of 18-day-old mouse fetuses, incubated in prep media (composition (mM). NaCl 107.5. NaH2PO4 1, NaHCO333.5, glucose 11, HEPS 1%, penicillin-streptomycin 1%) containing 0.25% trypsin and DNase1 for 30 minutes, dissociated into single cells, and seeded. Primary cortical neuron cells were grown in Neurobasal medium supplemented with 1% (v/v) B27, 1% penicillin (100 U/mL), streptomycin ([…]), and 1% Glutamax. Cells were maintained in a humidified atmosphere of 95% air and 5% CO2 at 37° C. Drug efficacy was evaluated after culturing primary cortical neuron cells for 14 days.
The amount of GluN2B reacted with the compound of the present disclosure was measured using Western blot. The fetal cerebral cortex was extracted from mice at 17 days of gestation, dissociated into single cells, cultured for 13 days, and treated with BnH drugs for 24 hours. The drug-treated cells were subjected to protein lysate preparation using RIPA protein lysis buffer containing protease and phosphatase inhibitors. The protein concentration was determined using a BCA protein assay kit (Pierce Biotechnology) using bovine serum albumin as a standard. Equal amounts of protein (20 μg per lane) were separated by electrophoresis on SDS-polyacrylamide gels at 90 V for 2 hours, then transferred from the SDS-polyacrylamide gel to PVDF membrane at 100 V for 1 hour. Then, primary reaction with GluN2B antibody (ab65783, Abcam) was performed at 4° C. for 1 day, washed three times at 10-minutes intervals with 1×PBT, and secondary reaction was performed with anti-mouse antibody (sc-2357, Santa Cruz) for 1 hour, followed by washing three times at 10-minutes intervals with 1×PBT. Western blotting was performed as described above to confirm GluN2B protein expression. Subsequently, each blot was re-probed using anti-β-actin antibody (sc-47778, Santa Cruz). Housekeeping protein β-actin was detected as a normalization control.

[2] = test system: C57BL/6J mice barrel cortex (layer 4); experiment: Synaptic function test: TC EPSC potency and GABA/AMPA ratio in barrel cortex (layer 4); format: in vivo
Text: Eight weeks old male C57BL/6J mice were anesthetized with isoflurane during surgery. The mice were then be placed in a stereotaxic frame (RWD Life Science, China). The parietal and the frontal bones were exposed by a sagittal incision of the scalp at the midline from the level of the eyes to the occipital protuberance. A small burr hole was drilled after exposing the skull. The injection cannula was placed at the following coordinates: (Mouse: Bregma −3.30, lateral −1.50, and ventral 0.7 mm). Sterile saline solution (+/−a compound of the present disclosure) was perfused at a constant flow rate of 0.5 μL/h through the injection cannula using a mini-Os pump (DURECT Corporation ALZET Osmotic Pumps, CA). Implantation was done in layer 4 of the barrel cortex ipsilateral. To estimate extent of the diffusion of the injected compound in layer 4 barrel cortex during pump injection, methylene blue was first injected to stain the diffusion area. On average methylene blue diffused to […] away from the injection site (the total area of the barrel cortex region is about 1500 μm). Based on this analysis, the present inventors recorded from barrel cortex area.
2 mg of BnH12001 was dissolved in 800 ul of DMSO and prepared as a stock solution. For oral administration, BnH12001 DMSO stock:PEG400:Saline was mixed in a ratio of 5:55:40 and 200 μl/animal was administered. For the control group, a vehicle in which DMSO:PEG400:Saline was mixed in a 5:55:40 ratio was administered at 200 ul/animal. In the single drug administration test, the compound was administered once a day for about 11 to 12 days at a dose of 1 mg/kg. Dose response test was performed by administering the compound once a day for about 11 to 12 days at doses of 0.03, 0.1, 0.3, 1, 3, and 10 mg/kg. 5 mice were used for the compound administration group and the control group, respectively.
For TC or hippocampus slice preparation. 9 to 10 weeks-old male C57BL/6J mice were anesthetized with isoflurane. Then, the brain was rapidly cooled via transcardial perfusion with ice-cold sucrose-artificial cerebrospinal fluid (aCSF). The brain was removed and placed in ice-cold sucrose aCSF. Paracoronal slices were prepared at an angle of 50° relative to the midline on a ramp at an angle of 10°. Then, slices were incubated in aCSF at 35° C. for 30 minutes to recover. Slices were then incubated in aCSF at room temperature (23 to 25° C.) for 1 to 4 hours before being placed in the recording chamber for experiments. The standard aCSF contains saturated with 95% O2/5% CO2. The brain of the mouse was removed and cut into 400 μm at a 50° angle (mouse at a 55° angle) to attach the cut portion to the vibratome disc to be the bottom. Brain slice was incubated in 35° C. in aCSF solution for 30 minutes, or at RT in aCSF solution for 1 hour.
All electrophysiological experiments were conducted at 27 to 29° C. For electrophysiological experiments, electrodes with […] resistance were used and stimuli were applied to the ventral posteromedial nucleus (VPM) using a concentric bipolar electrode (FHC, Bowdoin, ME). The somatosensory cortex was identified by the presence of barrels under 4× magnification and differential interference contrast (DIC) optics, and by the ability to evoke short and constant latency field excitatory postsynaptic potentials (fEPSPs) by VPM stimulation. Whole-cell voltage-clamp recordings were made from stellate cells (SC) in layer IV of the somatosensory barrel cortex using infrared illumination and differential interference contrast (DIC) optics. The composition of whole cell recording solution is shown as follows:
Whole cell recordings were made using a multiclamp 700A (Molecular devices, Sunnyvale, CA) digitized at 10 kHz and filtered at 2 kHz. […]

[3] = test system: BDNF and GluN2B expression in SH-SY5Y cells; experiment: Expression of BDNF and GluN2B in SH-SY5Y cells; format: cell-based, human; conditions: 1 μM, application for 6 and 24 hours
Description: Human undifferentiated neuroblastoma cell line SH-SY5Y and human embryonic kidney cell line (HEK)-293T were purchased from Korean Cell Line Bank (Korea) and Takara (Japan), respectively. Cells were grown in HyClone Minimal Essential Medium (MEM) and Dulbecco's Modified Eagle Medium (DMEM), respectively, supplemented with 10% (v/v) fetal bovine serum (FBS), penicillin (100 U/mL), and streptomycin ([…]). Cells were maintained in a humidified atmosphere of 95% air and 5% CO2 at 37° C. Cells were passaged 10 times at maximum. Cells were dissociated using 0.05% trypsin-EDTA solution and the cells were seeded in new culture dishes for maintenance.

[4] = 1 μM, 24-hour treatment, cultured primary cortical neurons (DIV 14)
[5] = oral, 1 mg/kg, 8-week-old C57BL/6J mice
[6] = primary cultured cortical neurons
[7] = Os pump, injected into layer 4 of barrel cortex, 3 μM, 2 weeks, 8-week-old C57BL/6J mice

C[C@@H]1CC[C@H](C(=O)O)CN1C(=O)Cc1ccc(F)cc1Cl [BnH12001 enantiomer (3S,6R, 98%<), (3S,6R)-1-(2-(2-chloro-4-fluorophenyl)acetyl)-6-methylpiperidine-3-carboxylic acid]
BDNF expression [1, 4]: increased | GluN2B expression [1, 4]: increased | Balance of excitation/inhibition (GABA/AMPA ratio) [2, 5]: maintaining the balance of excitation/inhibition | Efficacy on TC synaptic potency compared among racemate and enantiomers [2, 5]: highest efficacy | TC synaptic potency in the sensory cortex [2, 5]: increase the TC synaptic potency

CC1CCC(C(=O)O)CN1C(=O)Cc1ccc(F)cc1Cl (racemic) [BnH12001, 1-(2-(2-chloro-4-fluorophenyl)acetyl)-6-methylpiperidine-3-carboxylic acid]
BDNF expression [1, 6]: significantly increased | GluN2B expression [1, 6]: significantly increased | HDAC4 protein expression [1, 6]: significantly suppressed | BDNF expression [3]: augmented | GluN2B expression [3]: augmented | Balance of excitation/inhibition (GABA/AMPA ratio) [2, 7]: maintained | Excitatory TC synaptic potency (TC potency) [2, 7]: significantly increased | Balance of excitation/inhibition (GABA/AMPA ratio) [2, 5]: maintaining the balance of excitation/inhibition | TC synaptic potency in the sensory cortex [2, 5]: increase the TC synaptic potency | TC EPSC potency in the layer 4 barrel cortex ([2]; orally-applied, 3 μM): significantly augmented
